ChEMBL document CHEMBL5543112, “Discovery of CBPD-268 as an Exceptionally Potent and Orally Efficacious CBP/p300 PROTAC Degrader Capable of Achieving Tumor Regression” (J Med Chem, 2024)

Legend:
[1] = Drug distribution in SCID mouse liver at 1 mg/kg, po measured at 6 hrs by LC-MS/MS analysis; assay type: ADME, organism-based; conditions: read-out: Ct
[2] = Metabolic stability in dog liver microsome assessed as half life measured upto 60 mins in presence of NADPH by LC-MS/MS analysis; assay type: ADME, Canis lupus familiaris; conditions: liver microsomes
[3] = Drug distribution in Sprague-Dawley rat liver at 10 mg/kg, po measured at 6 hrs by LC-MS/MS analysis; assay type: ADME, organism-based; conditions: read-out: Ct
[4] = Toxicity in female BALB/c mouse assessed as effect on body weight loss at 3 to 10 mg/kg, po administered twice a week for 5 to 6 weeks; assay type: organism-based; conditions: in vivo, dose lower 3 mg/kg, time lower 5 weeks, dose upper 10 mg/kg, time upper 6 weeks
[5] = Drug distribution in SCID mouse spleen at 1 mg/kg, po measured at 1 hr by LC-MS/MS analysis; assay type: ADME, organism-based; conditions: read-out: Ct
[6] = Drug concentration in SCID mouse tumor at 1 mg/kg, po measured at 6 hrs by LC-MS/MS analysis; assay type: ADME, organism-based, Neoplasm; conditions: read-out: Ct
LNCaP = assay: Antiproliferative activity against human LNCaP cells assessed as cell growth inhibition incubated for 4 days by celtiter-glo luminescent assay; conditions: 96 h
[7] = Drug distribution in Sprague-Dawley rat liver at 3 mg/kg, po measured at 24 hrs by LC-MS/MS analysis; assay type: ADME, organism-based; conditions: read-out: Ct
[8] = Toxicity in male BALB/c mouse assessed as effect on body weight loss at 3 to 10 mg/kg, po administered twice a week for 5 to 6 weeks; assay type: organism-based; conditions: in vivo, dose lower 3 mg/kg, time lower 5 weeks, dose upper 10 mg/kg, time upper 6 weeks
[9] = Plasma protein binding in human by LC-MS analysis; assay type: ADME, cell-free; conditions: read-out: PPB (converted)
[10] = Metabolic stability in human plasma assessed as half life measured upto 120 mins by LC-MS/MS analysis; assay type: ADME, cell-free
[11] = Drug distribution in Sprague-Dawley rat kidney at 10 mg/kg, po measured at 1 hr by LC-MS/MS analysis; assay type: ADME, organism-based; conditions: read-out: Ct
[12] = Drug distribution in SCID mouse liver at 3 mg/kg, po measured at 6 hrs by LC-MS/MS analysis; assay type: ADME, organism-based; conditions: read-out: Ct
[13] = Drug distribution in Sprague-Dawley rat liver at 3 mg/kg, po measured at 6 hrs by LC-MS/MS analysis; assay type: ADME, organism-based; conditions: read-out: Ct
[14] = Metabolic stability in dog plasma assessed as half life measured upto 120 mins by LC-MS/MS analysis; assay type: ADME, cell-free, Canis lupus familiaris
[15] = Toxicity in immune-competent Sprague-Dawley rat assessed as change in calcium level at 1 to 10 mg/kg, po administered twice a week for 5 weeks; assay type: organism-based; conditions: in vivo, 840 h, dose 1-10 mg/kg
[16] = Drug distribution in SCID mouse tumor at 3 mg/kg, po measured at 1 hr by LC-MS/MS analysis; assay type: ADME, organism-based, Neoplasm; conditions: read-out: Ct
[17] = Drug distribution in SCID mouse liver at 0.3 mg/kg, po measured at 6 hrs by LC-MS/MS analysis; assay type: ADME, organism-based; conditions: read-out: Ct
[18] = AUC in Sprague-Dawley rat at 3 mg/kg, po measured upto 24 hrs by LC/MS-MS analysis; assay type: ADME, organism-based; conditions: in vivo
[19] = Toxicity in immune-competent Sprague-Dawley rat assessed as change in total protein level at 1 to 10 mg/kg, po administered twice a week for 5 weeks; assay type: organism-based; conditions: in vivo, 840 h, dose 1-10 mg/kg
[20] = Toxicity in immune-competent Sprague-Dawley rat at 1 to 10 mg/kg, po administered twice a week for 5 weeks; assay type: organism-based; conditions: in vivo, 840 h, dose 1-10 mg/kg
[21] = Cmax in ICR mouse at 3 mg/kg, po measured upto 24 hrs by LC/MS-MS analysis; assay type: ADME, organism-based; conditions: in vivo
[22] = Drug distribution in Sprague-Dawley rat heart at 10 mg/kg, po measured at 6 hrs by LC-MS/MS analysis; assay type: ADME, organism-based; conditions: read-out: Ct
[23] = Drug distribution in SCID mouse spleen at 0.3 mg/kg, po measured at 1 hr by LC-MS/MS analysis; assay type: ADME, organism-based; conditions: read-out: Ct
[24] = Drug distribution in SCID mouse spleen at 3 mg/kg, po measured at 24 hrs by LC-MS/MS analysis; assay type: ADME, organism-based; conditions: read-out: Ct
[25] = Drug distribution in SCID mouse plasma at 3 mg/kg, po measured at 1 hr by LC-MS/MS analysis; assay type: ADME, organism-based
VCaP [26] = assay: Antitumor activity against human VCaP cells xenografted in SCID mouse assessed as tumor growth inhibition at 1 mg/kg, po administered twice a week for 4 week; assay type: functional; conditions: 672 h, time 4 weeks, read-out: TGI
[27] = Toxicity in immune-competent Sprague-Dawley rat assessed as change in eosinophil at 1 to 10 mg/kg, po administered twice a week for 5 weeks; assay type: organism-based; conditions: in vivo, 840 h, dose 1-10 mg/kg
[28] = Drug distribution in Sprague-Dawley rat kidney at 3 mg/kg, po measured at 6 hrs by LC-MS/MS analysis; assay type: ADME, organism-based; conditions: read-out: Ct
Cytochrome P450 2C19 = Cytochrome P450 2C19 (Homo sapiens, UniProt P33261); assay: Inhibition of CYP2C19 (unknown origin) preincubated with compound for 5 mins followed by NADPH addition and measured after 45 mins by LC-MS/MS analysis; assay type: ADME
[29] = Drug distribution in Sprague-Dawley rat plasma at 10 mg/kg, po measured at 24 hrs by LC-MS/MS analysis; assay type: ADME, organism-based
[30] = Cmax in Sprague-Dawley rat at 3 mg/kg, po measured upto 24 hrs by LC/MS-MS analysis; assay type: ADME, organism-based; conditions: in vivo
VCaP [31] = assay: Antitumor activity against human VCaP cells xenografted in SCID mouse assessed as tumor regression at 3 mg/kg, po administered 3 times a week for 4 weeks; assay type: functional
[32] = Half life in ICR mouse at 1 mg/kg, iv measured upto 24 hrs by LC/MS-MS analysis; assay type: ADME, organism-based; conditions: in vivo
[33] = Drug distribution in Sprague-Dawley rat spleen at 3 mg/kg, po measured at 1 hr by LC-MS/MS analysis; assay type: ADME, organism-based; conditions: read-out: Ct
[34] = Drug distribution in SCID mouse tumor at 3 mg/kg, po measured at 6 hrs by LC-MS/MS analysis; assay type: ADME, organism-based, Neoplasm; conditions: read-out: Ct
[35] = Drug distribution in Sprague-Dawley rat liver at 3 mg/kg, po measured at 1 hr by LC-MS/MS analysis; assay type: ADME, organism-based; conditions: read-out: Ct
[36] = Drug distribution in Sprague-Dawley rat spleen at 3 mg/kg, po measured at 24 hrs by LC-MS/MS analysis; assay type: ADME, organism-based; conditions: read-out: Ct
[37] = Drug distribution in SCID mouse tumor at 3 mg/kg, po measured at 24 hrs by LC-MS/MS analysis; assay type: ADME, organism-based, Neoplasm; conditions: read-out: Ct
[38] = Toxicity in female BALB/c mouse assessed as body weight loss at 30 mg/kg, po administered twice a week for 5 to 6 weeks; assay type: organism-based; conditions: in vivo, time 5-6 weeks
[39] = Plasma protein binding in dog by LC-MS analysis; assay type: ADME, cell-free, Canis lupus familiaris; conditions: read-out: PPB (converted)
[40] = Drug concentration in SCID mouse plasma at 1 mg/kg, po measured at 6 hrs by LC-MS/MS analysis; assay type: ADME, organism-based
[41] = Metabolic stability in mouse liver microsome assessed as half life measured upto 60 mins in presence of NADPH by LC-MS/MS analysis; assay type: ADME; conditions: liver microsomes
[42] = Volume of distribution at steady state in Sprague-Dawley rat at 1 mg/kg, iv measured upto 24 hrs by LC/MS-MS analysis; assay type: ADME, organism-based; conditions: in vivo, read-out: Vdss

Chain of Cytochrome P450 2C19 (P33261 whole entry): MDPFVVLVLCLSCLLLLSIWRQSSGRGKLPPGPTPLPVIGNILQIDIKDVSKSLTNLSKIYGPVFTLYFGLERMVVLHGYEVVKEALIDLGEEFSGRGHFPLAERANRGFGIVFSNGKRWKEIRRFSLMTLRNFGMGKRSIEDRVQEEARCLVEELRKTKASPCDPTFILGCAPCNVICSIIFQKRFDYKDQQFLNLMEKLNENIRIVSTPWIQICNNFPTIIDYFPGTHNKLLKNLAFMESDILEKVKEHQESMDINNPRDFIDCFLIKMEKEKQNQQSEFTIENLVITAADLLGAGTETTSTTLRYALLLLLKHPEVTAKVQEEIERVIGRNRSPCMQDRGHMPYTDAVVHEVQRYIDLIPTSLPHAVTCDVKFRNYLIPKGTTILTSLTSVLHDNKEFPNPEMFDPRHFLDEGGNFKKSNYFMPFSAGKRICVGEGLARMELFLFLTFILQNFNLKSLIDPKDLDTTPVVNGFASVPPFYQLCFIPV

concentration at 6 h [1]: 301 ng/mL
half-life [2]: 0.817 h
concentration at 6 h [3]: 541 ng/g
concentration at 1 h [5]: 146 ng/mL
concentration at 6 h [6]: 12.6 ng/g
IC50 (LNCaP): 10.3 nM
concentration at 24 h [7]: 8.4 ng/g
fraction unbound [9]: 0.009
half-life [10]: 1.18 h
concentration at 1 h [11]: 1170 ng/g
concentration at 6 h [12]: 1750 ng/mL
concentration at 6 h [13]: 148 ng/g
half-life [14]: 1.3 h
concentration at 1 h [16]: 249 ng/g
concentration at 6 h [17]: 86.8 ng/mL
AUC at 24 h [18]: 937 ng·h/mL
Cmax [21]: 725 ng/mL
concentration at 6 h [22]: 83 ng/g
concentration at 1 h [23]: 91 ng/mL
concentration at 24 h [24]: 21.2 ng/mL
concentration at 1 h [25]: 747 ng/mL
concentration at 6 h [28]: 59.2 ng/g
IC50 (Cytochrome P450 2C19): > 10000 nM
concentration at 24 h [29]: 1.3 ng/mL
Cmax [30]: 221 ng/mL
t1/2 [32]: 3.4 h
concentration at 1 h [33]: 832 ng/g
concentration at 6 h [34]: 294 ng/g
concentration at 1 h [35]: 978 ng/g
concentration at 24 h [36]: 8.1 ng/g
concentration at 24 h [37]: 12 ng/mL
fraction unbound [39]: 0.009
concentration at 6 h [40]: 14.1 ng/mL
half-life [41]: > 2 h
Vd [42]: 4.9 L/kg
SMILES: CC(=O)N1CCc2c(c(N3CCCc4cc(-c5cnn(C)c5)c(C(F)F)cc43)nn2[C@H]2CC[C@H](CN3Cc4cc5c(cc4C3)C(=O)N(C3CCC(=O)NC3=O)C5=O)CC2)C1 (some centres undefined)
Activity [4]: Non-Toxic
Activity [8]: Non-Toxic
Activity [15]: Non-Toxic
Activity [19]: Non-Toxic
Activity [20]: Non-Toxic
inhibition in vivo at 1 mg/kg (VCaP [26]): 81%
Activity [27]: Non-Toxic
Activity (VCaP [31]): 67%
Activity [38]: < 5%
